Results reported in paper PMC12362618, “Development of the First Small-Molecule Inhibitor Targeting Oncostatin M for Treatment of Breast Cancer” (Journal of Medicinal Chemistry, 2025).
“Also recorded” adds a separate entry of the source. Read-outs that look alike come from different tables or passages of the source.

Experiments:
15N OSM = target: T1, 15N OSM (Homo sapiens, UniProt P13725); assay: 1H,15N HSQC NMR chemical shift perturbation titration; assay type: binding; details: 100 μM 15N OSM; residues Asp87, Gln90, Arg91, Leu92 at or near site III
T1 construct: ^15N-isotope-labeled OSM^1-187 protein was titrated individually with each of the SMIs; made in house
T1 sequence (P13725 26-212): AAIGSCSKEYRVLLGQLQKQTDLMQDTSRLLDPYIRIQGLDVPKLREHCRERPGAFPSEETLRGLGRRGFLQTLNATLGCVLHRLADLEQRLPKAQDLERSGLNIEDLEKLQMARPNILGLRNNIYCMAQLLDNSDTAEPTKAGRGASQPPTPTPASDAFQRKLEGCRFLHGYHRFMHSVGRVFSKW
Description: Protein was prepared and chemical shift perturbation (CSP) experiments were conducted as previously described by Mass et al. For SMI inhibitor titration studies, in a 5 mm NMR tube, 600 μL of a 100 μM sample of ^15N OSM in NMR buffer (50 mM sodium phosphate (pH 6.6), 100 mM sodium chloride, and 5% D2O) was titrated with a 20 mM stock solution of SMI in d6-dimethyl sulfoxide. The SMI stock solutions were added in 0.75–4 μL increments to a final concentration of 260 μM (SMI-10B) or 200 μM (SMI-10B13) and final volumes of 636 μL (SMI-10B) and 614.25 μL (SMI-10B13). Titration points for SMI-10B were: 0, 20, 40, 60, 80, 100, 140, 180, 220, and 260 μM. Titration points for SMI-10B13 were: 0, 0.5, 1.0, 6.0, 10, 20, 30, 40, 50, 60, and 200 μM.

[1] = test system: OSM-mediated signaling (pSTAT3, pAKT, pJNK, pERK) in T47D cells; assay: Immunoblot of OSM-mediated signaling in T47D cells; assay type: cell-based, human; details: SMI 10 μM, OSM 10 ng/mL, 30 min
Description: For immunoblot analysis, T47D breast cancer cells were treated and collected in the same manner as described above for the ELISA preparation. After lysate collection, samples were run on a 10% SDS-PAGE gel and transferred to a nitrocellulose membrane via semidry transfer. Blots were rinsed with DI H2O and allowed to completely dry at room temperature before blocking with LiCor Intercept PBS Blocking Buffer (LiCor, Lincoln, NE; Cat# 927-90001) for 1 h. After blocking, primary antibodies (1:1000) suspended in blocking buffer supplemented with 0.1% Tween were added, shaken at room temperature for 1 h, and stored at 4 °C overnight. Membranes were then washed 6 times for 5 minutes each with 1X PBS supplemented with 0.5% Tween while shaking at room temperature, and secondary antibodies (1:15,000) were applied and incubated for 1 h. Afterward, membranes were washed as previously described above and imaged at 700 nm using the LiCor Odyssey CLx Imaging System. Quantification of immunoblots was performed using the LiCor Image Studio software, normalizing to β-Actin, and calculating relative fold change compared to nontreated samples. Antibodies used included phospho-STAT3 (Y705) (Cell Signaling Technology, Danvers, MA; cat. no. 9145), phospho-AKT (S473) (Cell Signaling Technology, Danvers, MA; cat. no. 4060), phospho-JNK ([…]/[…]) (Cell Signaling Technology, Danvers, MA; cat. no. 4668), phospho-ERK (T202/Y204) (Cell Signaling Technology, Danvers, MA; cat. no. 9101), β-Actin (Cell Signaling Technology; cat. no. 3700), and donkey antirabbit IRDye 800CW (LiCor, Lincoln, NE; Cat# 925-32213).

[2] = test system: T47D and MCF-7 human breast cancer cells; assay: MTS cell viability assay; assay type: cell-based; details: T47D and MCF-7; 100 μM to 0.1 nM, 24 h
Description: Cell viability was assessed using the CellTiter 96 AQueous One Solution Cell Proliferation Assay (Promega, cat. no. G3580), following the manufacturer’s instructions. Briefly, T47D and MCF-7 human breast cancer cells were seeded in 96-well plates at a density of 10,000 cells/well in 100 μL of complete growth medium and allowed to adhere overnight. Cells were then treated with a serial dilution (100 μM to 0.1 nM) of SMI-10B, SMI-10B13, Temozolomide (positive control), or vehicle (DMSO) for 24 h. Following treatment, 20 μL of MTS reagent was added directly to each well, and plates were incubated at 37 °C in a humidified incubator with 5% CO2 and imaged after 1 h of incubation. Absorbance was measured at 490 nm by using a microplate reader. Cell viability was expressed as a percentage relative to the vehicle-treated controls, and experiments were performed in triplicate.

[3] = test system: OSM-induced pSTAT3 in T47D human breast cancer cells; assay: pSTAT3 ELISA in T47D cells treated with OSM ± SMI; assay type: cell-based; details: for IC50: Homo sapiens
Description: To test the effect of SMIs in vitro, each SMI was incubated with OSM for a period of 1 h at 37 °C, and T47D and MDA-MB-231 human breast cancer cell lines were subsequently treated with OSM (10 ng/mL) and/or SMI-10 (10 μM) analogs for 30 min and measured for pSTAT3 levels via ELISA. The results of these assays are presented graphically in Figure and, for T47D cells, in Table as a percentage of reduction from +OSM alone. For phospho-STAT3 (pSTAT3) ELISAs, T47D MDA-MB-231, and MCF-7 cells were seeded in 12- or 24-well plates at 70–75% confluency and allowed to adhere overnight, after which cells were serum-starved with serum-free RPMI-1640 for 4 h. SMIs (10 μM in DMSO or serially diluted to specified concentrations from a 100 mM stock in DMSO) and human recombinant OSM (10 ng/mL; PeproTech; #300–10T-10UG) were incubated in serum-free RPMI-1640 medium for 1 h. After incubation, the SMI-10 analogs or SMI-10B13 and OSM were added to the serum-starved cells for 30 min. Immediately afterward, the cells were lysed using 1x PathScan Sandwich ELISA Lysis Buffer (Cell Signaling Technology; #7018S), collected, and stored at −20 °C. Lysates were analyzed for pSTAT3 levels using either the PathScan Phospho-STAT3 (Tyr705) Sandwich ELISA Antibody Pair kit (Cell Signaling Technology; #7146) or Human/Mouse Phospho-STAT3 (Y705) DuoSet IC ELISA (R&D Systems; DYC4607B), according to manufacture’s protocol. pSTAT3 expression was measured with absorbance at 450 nm and quantified by comparison relative to OSM-induced pSTAT3 levels. To calculate an IC50 for SMI-10B13, a standard curve was generated as described in the DuoSet IC ELISA datasheet to determine the concentration of pSTAT3.

[4] = T47D, SMI 10 μM + OSM 10 ng/mL, 30 min, ELISA, relative to +OSM, no-treatment blank subtracted

| Structure (SMILES) | Chemical shift perturbation of 15N OSM on titration (15N OSM) | Inhibition of OSM-mediated signaling cascades by immunoblot (words) [1] | Cytotoxicity / cell viability via MTS assay [2] | IC50 ([3]; Figure S3 graph A (T47D by order), four parameter nonlinear regression, given as negative log value, read-out: LogIC50 (graph A) (converted)) [nM] | IC50 ([3]; T47D cells, ELISA, read-out: IC50 for inhibition of STAT3 phosphorylation) [nM] | Relative pSTAT3 Levels (Table 2, SMI-10B analogs) [3, 4] [%] | Relative pSTAT3 Levels (Table 2, SMI-10B analogs) ([3]; T47D, SMI 10 μM + OSM 10 ng/mL, 30 min, ELISA, relative to +OSM, no-treatment blank subtracted, listed as 10B13) [%] | Inhibition of OSM-mediated signaling cascades by immunoblot (words) ([1]; listed as 10B) | Relative pSTAT3 Levels (Table 1, SMI-10A-10J) [3, 4] [%] | Inhibition of OSM-induced pSTAT3 via ELISA ([3]; T47D, SMI 10 μM, OSM 10 ng/mL, 30 min) |
| --- | --- | --- | --- | --- | --- | --- | --- | --- | --- | --- |
| O=C(O)/C=C/c1cc(-c2ccc3cc[nH]c3c2)c(-c2ccc3cc[nH]c3c2)o1 [SMI-10B13, (E)-3-(4,5-di(1H-Indol-6-yl)furan-2-yl)acrylic Acid] | binding to the same site as SMI-10B with a higher affinity | most effective; also recorded: better at inhibiting pSTAT3, pAKT, pJNK, and pERK signaling | Minimal toxicity; also recorded: minimal to no cytotoxicity at high concentrations | 136 | 136 | 32.7 | 32.73 |  |  |  |
| O=C(O)/C=C/c1cc(-c2ccc3c(c2)OCO3)c(-c2ccc3c(c2)OCO3)o1 [SMI-10B, (E)-3-(4,5-Bis(benzo[d][1,3]dioxol-5-yl)furan-2-yl)acrylic acid] | clear shifts in the fast exchange regime | significant reductions, near nontreated levels | Minimal toxicity; also recorded: minimal to no cytotoxicity at high concentrations |  |  | 30.14 |  | capable of inhibiting multiple cascades | 12.8 | capable of inhibiting OSM-induced pSTAT3 |
